{"source": "patent US6780984B2", "about": "“Method for prognosing cancer and the proteins involved” (Northwestern University, priority 2000, dated 2004)", "key": {"[1]": {"test_system": "PC3 cells transfected with the tripartite fusion protein", "assay": "FACS analysis of annexin V staining", "type": "cell-based, human", "conditions": "300 nM OHT for 72 hours, cells expressing GFP-TRAITS-ER", "protocol": "(§1) FIGS. 16a-16c show the apoptosis induction by TRAITS activation. […] The GFP-TRAITS-ER protein is localized primarily in cytoplasm in the absence of OHT, as visualized under green fluorescent microscope. The fusion protein was translocated into nuclei 24 hours after treatment of the cells with 300 nM OHT and then condensed in the fragmented nuclei 48 hours after the OHT treatment. The condensed and fragmented nuclei of the OHT-treated PC3 cells were then visualized by Hoechst staining. […] The PC3 cells were cultured in the absence or presence of 300 nM OHT for 72 hours prior to FACS analysis. The figure represents one of the 3 different experiments.\n(§2) Cell death assays flow cytometry analysis: In flow cytometry analysis, cells cultured under the indicated conditions were harvested for staining with the TACS™ Annexin V-Biotin apoptosis detection kit (R & D systems). Propidium iodide was used for nuclei staining and Cy5 was conjugated to Annexin V-biotin. Apoptosis of Annexin V-positive cells was analyzed by FACS. Hoechst 33342 (Molecular Probes) was used for nuclear condensate staining and DNA fragmentation assay."}, "[2]": {"test_system": "AT6.1 xenograft prostate tumor", "assay": "AT6.1 prostatic xenograft tumor growth in nude mice", "type": "in vivo", "text": "The tamoxifen pellets were implanted at the time of AT6.1 cell injection. The error bars represent S.E.M. The tamoxifen inhibition of AT6.1 tumor growth was statistically significant (p<0.005) at every time point of tumor measurement. […] The loading of total RNA was visualized by methylene blue staining. FIG. 17c is the northern blot analysis of TRAITS expression in rat prostatic tissues and cancer cell lines. The loading of total RNA was visualized by methylene blue staining. […] Affinity purified anti-human TRAITS polyclonal antibody was used in immunostaining of radical prostatectomy specimens from 8 patients with advanced prostate cancer (Gleason-score 7 to −10). […] A typical TRAITS down-regulation was shown with 20× objective (left) and the boxed area shown at high magnification (middle). A parallel staining without primary antibody (right) was conducted as a control. Blue arrows with solid line point to benign epithelial cells whereas red arrows with broken line indicate cancerous cells.\nTumor growth: To determine their tumorigenicity, AT6.1 cells were injected subcutaneously (1×10^5 cells) into 4-6 week old male nu/nu mice (NCI). […] Tumor sizes were calculated using formula V=π×h (h^23a^2)/6, a=(L((+))W)/4 (Nature, 405:354-359) and the Student's t-test (two-tailed) was performed to analyze statistical significance using the SPSS 10.0 software (SPSS Inc., Chicago, Ill.)."}, "[3]": {"test_system": "PC3 cells", "assay": "Apoptosis induction by GFP fusion constructs transfected into PC3 cells", "type": "cell-based, human", "conditions": "for cells expressing the GFP fusion protein: 10 days in medium including 500 μg/ml geneticin (G418); for role of domain in apoptosis induction: domain mapping / deletion mutagenesis, GFP fusions", "protocol": "as §1\n(§3) Vector constructions and mutagenesis: The cDNAs of rat and human TRAITS were cloned into pEGFP C1, pEGFP N3, PM and pIRES2-EGFP(Clontech) by PCR. Deletion mutagenesis of TRAITS were generated by PCR and cloned into above first three vectors. The plasmids containing ER™ domain were kindly provided by G. Evan (UCSF, San Francisco). ER™ domain was cut with BamHI/EcoRI and recloned into pEGFP-TRAITS to generate a tripartite fusion protein. All constructions were verified by sequencing and transfected using Lipofectamine (Gibco), Super Fect reagent (Qiagen) or Fugene 6 (Roche). In stable transfection, 500 μg/ml geneticin (G418) was used for selection of positive clones.\nGenomic structure and mutagenesis of TRAITS: TRAITS is composed of six exons (FIG. 18) which in humans encode respectively, 35 amino acid residues, 32 amino acid residues, 46 amino acid residues, 48 amino acid residues, 85 amino acid residues, and 14 amino acid residues (see FIG. 14a for exon junctions). In an effort to determine the role of individual domains, domain mapping was performed by fusing nucleic acids encoding GFP to nucleic acids encoding fragments of the TRAITS in pEGFPN3 vectors. The vectors was then used for transient and stable transfection of PC3 cells. The ability of the various constructs to induce apoptosis was determined."}, "[4]": {"test_system": "DNA sequence ACTTTA (T-box)", "assay": "Electrophoretic mobility shift assay (EMSA)", "type": "binding", "conditions": "competed by cold T-wt but not by cold T-mut", "protocol": "(§4) A non-specific complex (*) in the presence of GST-TRAITS was also formed in the presence of GST only. Labeled free DNA (F) was also indicated. […] NIH3T3 cells were transiently transfected with empty vector (PM) or vectors expressing the full-length rat TRAITS (residues 1-262 of SEQ ID NO:14), its N-terminal (residues 1-113 of SEQ ID NO:14), or its C-terminal (residues 114-262 of SEQ ID NO:14) plus pG5CAT reporter and pSV-β-gal for normalization. Assays were performed after 24 hours of transfection. The fold activation of CAT reporter is shown with S.E.M. Assays were performed in triplicate in two separate experiments.\nTwo oligonucleotides: T-wt: (5′-[…] GAAGCTTACGTCGCG-3′ SEQ ID NO:33) and T-mut: (5′-[…] CGAAGCTTACGTCGCG-3′ SEQ ID NO:34) were synthesized and amplified by PCR. T4 polynucleotide kinase (Promega) was used to label T-wt & T-mut by [γ-^32P] ATP (NEN). Recombinant GST-TRAITS fusion protein was incubated with 500 μg poly [dI-dC] and EMSA was performed according to the protocol provided by Gel Shift Assay System (Promega)."}, "[5]": {"test_system": "human prostate cancer cell lines (LNCaP, PC3, DU145 and TSU), rat Dunning prostate tumor cell lines, NIH3T3 and Hela", "assay": "Cell death after transient transfection of TRAITS expression vectors", "type": "cell-based", "text": "as §3, §2\nTo further characterize the function of TRAITS, green fluorescent protein (GFP) was tagged to TRAITS at its N-terminal or C-terminal ends using pEGFP C1 and pEGFP N3 vector, respectively (Clontech). […]"}, "[6]": {"test_system": "ventral prostate", "assay": "C3(I)-TID-1 transgenic mice", "type": "in vivo, mouse", "conditions": "transgenic vs non-transgenic littermates", "text": "To study the role of TRAITS protein in the prostate in vivo, an expression vector, C3 (I)-TID-1, was generated that expresses TRAITS under the control of the prostate C3(I) promoter [Zhang et al., Prostate, 32:16-26 (1997)]. The C3(I) promoter is androgen-dependent and active only in the ventral prostate and testis. Two transgenic mouse lines were identified by PCR amplification of the tail genomic DNA using primers specific for the TRAITS transgene. […] The C3(I)-TID-1 transgenic mice are fertile."}, "[7]": {"test_system": "PC3 cells", "assay": "Soft agar assay (anchorage-independent growth)", "type": "cell-based, human", "conditions": "stable overexpression in PC3 sublines", "protocol": "FIGS. 4A-4D show the effect of calreticulin overexpression on colony formation of PC3 cells in a soft agar assay, PC3 (FIG. 4A), Mock (FIG. 4B), Crt 35 (FIG. 4C) and Crt 59 (FIG. 4). The soft agar assay was conducted in 6-well plates. The bottom agar is 2 ml 0.6% noble agar containing 1×RPMI 1640 medium supplemented with 10% fetal bovine serum (FBS). After the preparation of bottom agar, 1 ml of 0.3% top agar containing 5,000 cells and 1×RPMI 1640 medium supplemented with 10% FBS was added to form the top layer. The assay for each PC3 subline was carried out in duplicate and was repeated at least 3 times.\nColonies with greater than 125 um in diameter were counted in the quantification. Error bars represent standard error means (SEM).\nSoft agar assay: The soft agar assay was conducted in 6-well plates. The bottom agar is 2 ml 0.6% noble agar containing 1×RPMI 1640 medium supplemented with 10% FBS. After the preparation of bottom agar, 1 ml of 0.3% top agar containing 5,000 cells and 1×RPMI 1640 medium supplemented with 10% FBS was added to form the top layer. The assay for each PC3 subline was carried out in duplicate and was repeated at least 3 times."}, "[8]": {"test_system": "PC3 cells", "assay": "Proliferation assay (cell numbers)", "type": "cell-based, human", "conditions": "ectopic expression, stably transfected PC3 sublines, culture in 6-well plates 4-5 days", "text": "The cell numbers of the parental PC3, empty pcDNA3.1 vector transfected PC3 sublines M1 and M2, and pcDNA3.1-TID-1 transfected PC3 sublines 27, 41, and 44 were counted after culture in 6-well plates for 4 days.\nThe cell numbers of the parental PC3, empty pCMV-Tag vector transfected PC3 sublines fM1 and fM2, and pCMV-Tag-fTID-1 transfected PC3 sublines f33, f17, and f23 were counted after culture in 6-well plates for 5 days. The proliferation and soft agar assays are described in Methods of Example 3 below.\nProliferation assay: Cells were plated onto 6-well plates in triplicate at 50,000 cells/well and cultured in RPMI 1640 medium supplemented with 10% fetal bovine serum (FBS), and 1% penicillin/streptomycin. The cells were trypsinized and counted each day afterwards for a five-day time course. The data were plotted using the GraphPad Prism software. The error bars represent SEM and they are difficult to see when SEM is very small. The cell proliferation assay was repeated 3 times and the results were very reproducible."}, "[9]": {"test_system": "CAT reporter gene expression", "assay": "Mammalian two-hybrid analysis, CAT reporter assay in NIH3T3 cells", "type": "cell-based", "protocol": "as §4\nCAT reporter assays: CAT activities were assayed 24 hours after transfection. NIH3T3 cells were grown in 6-well plates and transfected using Superfect (Qiagen). For transient transfection, 2 μg of PM constructions, 2 μg of pSVβ-gal (internal control) and 2 μg of pG5CAT (Clontech) were used per well. The level of CAT protein in cell extracts was determined using a CAT ELASA kit (Roche) according to the manufacturer. Protein concentration was measured using a Dc protein Assay kit (Bio-Rad). β-Galactosidase activity was measured by incubating with ONPG (o-nitrophenyl-β-D-galactopyranoside) solution. Data are reported as means ±S.E.M. of two separate experiments performed in triplicate."}, "[10]": {"test_system": "LNCaP", "assay": "Stable transfection of LNCaP with CMV-fTID-1", "type": "cell-based, human", "conditions": "two different experiments", "text": "The CMV-fTID-1 expression vector was also transfected into LNCaP, an androgen-responsive human prostate cancer cell line [Horoszewicz et al., Cancer Research 43:1809-18 (1983)], in two different experiments. […] The expression of the endogenous TID-1 gene was also not detected in the rat Dunning tumor cell lines (FIGS. 10A-10B) and various human prostate cancer cell lines including LNCaP, PC3, DU145, and TSU cells. […] Stable expression was observed using a CMV promoter-based expression vector. Clonal variations of stably transfected cells can be minimized by assaying multiple, (e.g., three) independent stably transfected sublines."}}, "data": [{"molecule": "4-hydroxytamoxifen [OHT]", "values": [{"measurement": "apoptotic cells (annexin V)", "setting": "[1]", "result": 60.7, "unit": "%"}]}, {"molecule": "CC/C(=C(\\c1ccccc1)c1ccc(OCCN(C)C)cc1)c1ccccc1", "note": "[tamoxifen]", "values": [{"measurement": "growth of xenograft tumors from parental or GFP-ER transfected AT6.1 cells", "setting": "[2]; tamoxifen administration, parallel experiments", "result": "no detectable influence"}, {"measurement": "growth of xenograft tumors from AT6.1 sublines expressing GFP-TRAITS-ER", "setting": "[2]; tamoxifen pellets implanted at cell injection, p<0.005", "result": "significantly inhibited"}]}, {"molecule": "EAF1: protein with sequence homology to TRAITS, SEQ ID NO:20; tested as GFP fusion", "values": [{"measurement": "cell death", "setting": "[3]; GFP fusion proteins from pEGFP N3, human and mouse", "result": "cause cell death"}]}, {"molecule": "GST-TRAITS: E. coli-purified GST-TRAITS fusion protein", "values": [{"measurement": "binding to labeled T-box containing DNA", "setting": "[4]", "result": "forms a DNA-protein complex"}]}, {"molecule": "N-terminal region of TRAITS: approximately amino acids 1-113 of TID-1, fused to GFP", "values": [{"measurement": "cells expressing the GFP fusion protein", "setting": "[3]", "result": "none of the cells were found to express the N-terminal fusion protein"}, {"measurement": "role of domain in apoptosis induction", "setting": "[3]", "result": "necessary and sufficient for inducing apoptosis"}]}, {"molecule": "TID-1: novel testosterone regulated apoptosis inducer and tumor suppressor; transcription factor, SEQ ID NOs:14 (rat), 16 (mouse), 18 (human)", "values": [{"measurement": "programmed cell death phenotype of transfected cells", "setting": "[5]", "result": "efficiently induced chromatin condensation and cell death"}, {"measurement": "enhancement of epithelial cell number per unit area in the ventral prostate", "setting": "[6]", "result": "2-3 fold"}, {"measurement": "colony formation in soft agar", "setting": "[7]", "result": "inhibition of the size and number of colonies"}, {"measurement": "reduction in cell numbers", "setting": "[8]", "result": 2, "unit": "fold"}, {"measurement": "transactivation of CAT reporter gene expression", "setting": "[9]; 24 hours after transfection", "result": "more than 40 fold"}]}, {"molecule": "exon III: TRAITS fragment corresponding to amino acids 68-113 of SEQ ID NO:18, fused to GFP", "values": [{"measurement": "role of domain in apoptosis induction", "setting": "[3]", "result": "both necessary and sufficient to induce apoptosis"}]}, {"molecule": "fTID-1: FLAG tagged TID-1 protein expressed from pCMV-Tag-fTID-1", "values": [{"measurement": "recovery of clones expressing fTID-1", "setting": "[10]", "result": "no LNCaP clones expressing fTID-1 were found"}, {"measurement": "reduction in cell numbers", "setting": "[8]", "result": 2, "unit": "fold"}]}, {"molecule": "C-terminal region: remaining approximately 147-149 amino acids of TID-1 containing the transactivation domain (protein) GEGSSKIQCRLEQQQQQMWNPPRTSNLVQHSPSEDKLSPTSLMDDIERELKAEASLMDQMSSCDSSSDSRSSSSSSSEDSSSDSEDDDRSSPSGPRRYSSEHPSVSAGPQYRTSDADTTCNRLYDNSALLMSTLRSDLQLSESDSDSED", "values": [{"measurement": "cells expressing the GFP fusion protein", "setting": "[3]", "result": "many of the cells expressed the C-terminal fusion protein"}, {"measurement": "role of domain in apoptosis induction", "setting": "[3]", "result": "not required for TRAITS to induce apoptosis"}, {"measurement": "transactivation relative to full-length (deletion mutagenesis)", "setting": "[9]; deletion of the N-terminal region", "result": "enhance the transactivation"}]}]}
